Data: patent US20210070747A1, “2(1H)-QUINOLINONE DERIVATIVE” (priority 2017, published 2021)
pIC50: −log10 of the molar value. Converted amounts (≈) assume the structure as drawn. Structures can show the parent of a compound that is named as a salt. Where two headings read alike, the source gives them in different places.

What was measured:
E. Coli ATCC 25922 = assay: Test for evaluating antibacterial activity (E. coli), broth microdilution MIC; assay type: cell-based; conditions: Escherichia coli, ATCC25922; 35° C., 18 hours, cation-adjusted Mueller-Hinton medium
In short: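 Broth microdilution per modified CLSI method in cation-adjusted Mueller-Hinton medium. Inoculum from overnight heart infusion agar growth, McFarland 0.5 suspension diluted 10-fold; incubation 35° C for 18 hours. MIC taken as lowest drug concentration with no visible growth.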

E. coli DNA gyrase = biological target: T1, E. coli DNA gyrase (Escherichia coli, UniProt P0AES6); assay: Test for evaluating the activity of inhibiting E. coli DNA gyrase enzyme (Method 1, supercoiling, Inspiralis enzyme); assay type: biochemical
T1 construct: made in house; host or cells: E. coli BL21 (DE3)
Experimental: Test Example 1-1 Test for Evaluating the Activity of Inhibiting E. coli DNA Gyrase Enzyme (Method 1)
The enzymatic activity of E. coli DNA gyrase was measured by a method comprising reacting DNA gyrase and its substrate, relaxed pBR322 (Inspiralis), in the presence of ATP and detecting the post-reaction supercoiled pBR322/relaxed pBR322 ratio with H19 (Profoldin).
Specifically, to 1 ng/μL of relaxed pBR322, E. coli DNA gyrase enzyme (Inspiralis) was added at a final concentration of 0.006 U/μL and the mixture was incubated for 60 minutes at room temperature. This reaction was carried out in 20 mmol/L tris-HCl buffered solution (pH 8.0) comprising 0.5 mmol/L ATP, 0.005% bridge 35, 35 mmol/L ammonium acetate, 8 mmol/L magnesium chloride, 4.6% glycerol, and 1 mmol/L dithiothreitol. To the reaction mixture, H19 was added to bring the reaction to an end; thereafter, the supercoiled pBR322/relaxed pBR322 ratio was detected at excitation wavelength/emission wavelength=485 nm/535 nm. An inhibition curve was obtained by allowing the analyte compound to be present at varying concentrations during the reaction described above. […] The test results of interest are shown in [Table 20-1] and [Table 20-2].

[1] = Method 1, read-out: E. Coli Gyrase supercoiling IC50

SMILES | MIC (E. Coli ATCC 25922) [µg/mL] | pIC50 (E. coli DNA gyrase; [1]) | pIC50 (E. coli DNA gyrase)
CNc1cccc2cc(C(=O)Nc3cccnc3)c(=O)[nH]c12 [Example 15, 8-(methylamino)-2-oxo-N-(pyridine-3-yl)-1,2-dihydroquinoline-3-carboxamide] | > 64 | 7.45 | –
CNc1cccc2cc(C(=O)Nc3cnc(C(=O)O)nc3)c(=O)[nH]c12 [Example 20, 5-{[8-(methylamino)-2-oxo-1,2-dihydroquinoline-3-carbonyl]amino}pyrimidine-2-carboxylic acid] | > 16 | 8.92 | –
CNc1cccc2cc(C(=O)NC3CCN(c4nccs4)C3)c(=O)[nH]c12 (centres unmarked) [Example 23, 8-(methylamino)-2-oxo-N-[1-(1,3-thiazole-2-yl)pyrrolidine-3-yl]-1,2-dihydroquinoline-3-carboxamide] | > 4 | 6.16 | –
CNc1cccc2cc(C(=O)Nc3cnc(NC(=O)OC(C)(C)C)s3)c(=O)[nH]c12 [Example 24, tert-butyl(5-{[8-(methylamino)-2-oxo-1,2-dihydroquinoline-3-carbonyl]amino}-1,3-thiazole-2-yl)carbamate] | > 32 | 6.19 | –
CNc1cccc2cc(C(=O)Nc3cnc(N)s3)c(=O)[nH]c12.Cl [Example 25, N-(2-Amino-1,3-thiazol-5-yl)-8-(methylamino)-2-oxo-1,2-dihydroquinoline-3-carboxamide-hydrochloride] | > 16 | – | 7.18
CNc1cccc2cc(C(=O)Nc3ccc(C(=O)NCCN4CCOCC4)cc3)c(=O)[nH]c12 [Example 26, 8-(methylamino)-N-(4-{[2-(morpholine-4-yl)ethyl]carbamoyl}phenyl)-2-oxo-1,2-dihydroquinoline-3-carboxamide] | > 32 | 7.75 | –
CNc1cccc2cc(C(=O)NCc3csc(NC(=O)OC(C)(C)C)n3)c(=O)[nH]c12 [Example 27, tert-butyl[4-({[8-(methylamino)-2-oxo-1,2-dihydroquinoline-3-carbonyl]amino}methyl)-1,3-thiazole-2-yl]carbamate] | > 8 | 6.59 | –
CNc1cccc2cc(C(=O)NCCc3cccnc3)c(=O)[nH]c12 [Example 30, 8-(methylamino)-2-oxo-N-[2-(pyridine-3-yl)ethyl]-1,2-dihydroquinoline-3-carboxamide] | > 16 | 6.67 | –
CNc1cccc2cc(C(=O)NCc3csc(N)n3)c(=O)[nH]c12.Cl [Example 31, N-[(2-amino-1,3-thiazole-4-yl)methyl]-8-(methylamino)-2-oxo-1,2-dihydroquinoline-3-carboxamide-hydrochloride] | > 16 | – | 6.49
CNc1cccc2cc(C(=O)Nc3cnc(N4CCC(N5CCN(CCO)CC5)CC4)nc3)c(=O)[nH]c12 [Example 42, N-(2-{4-[4-(2-hydroxyethyl)piperazine-1-yl]piperidine-1-yl}pyrimidine-5-yl)-8-(methylamino)-2-oxo-1,2-dihydroquinoline-3-carboxamide] | > 64 | 7.13 | –
CNc1cccc2cc(C(=O)Nc3ccc(C(=O)N4CCOCC4)cc3)c(=O)[nH]c12 [Example 43, 8-(methylamino)-N-[4-(morpholine-4-catbonyl)phenyl]-2-oxo-1,2-dihydroquinoline-3-carboxamide] | > 32 | 6.76 | –
CNc1cccc2cc(C(=O)Nc3ccc(C(=O)O)cc3OCCN3CCN(C)CC3)c(=O)[nH]c12.Cl [Example 44, 4-{[8-(methylamino)-2-oxo-1,2-dihydroquinoline-3-carbonyl]amino}-3-[2-(4-methylpiperazine-1-yl)ethoxy] benzoic acid-hydrochloride] | > 16 | – | 6.43
CNc1cccc2cc(C(=O)Nc3cnc(N4CCC(N)CC4)nc3)c(=O)[nH]c12.O=CO [Example 45, N-[2-(4-aminopiperidine-1-yl)pyrimidine-5-yl]-8-(methylamino)-2-oxo-1,2-dihydroquinoline-3-carboxamide-formate] | > 16 | – | 6.99
CNc1cccc2cc(C(=O)Nc3ccc(C(=O)NCCCN)cc3)c(=O)[nH]c12.Cl [Example 46, N-{4-[(3-aminopropyl)carbamoyl]phenyl}-8-(methylamino)-2-oxo-1,2-dihydroquinoline-3-carboxamide-hydrochloride] | > 1 | – | 8.13
CNc1cccc2cc(C(=O)Nc3ccc(C(=O)NCC4CCNCC4)cc3)c(=O)[nH]c12.O=CO [Example 47, 8-(methylamino)-2-oxo-N-(4-{[(piperidine-4-yl)methyl]carbamoyl}phenyl)-1,2-dihydroquinoline-3-carboxamide-formate] | > 32 | – | 7.97
CNc1cccc2cc(C(=O)Nc3ccc(C(=O)O)cc3OCCCN)c(=O)[nH]c12.O=CO [Example 48, 3-(3-aminopropoxy)-4-{[8-(methylamino)-2-oxo-1,2-dihydroquinoline-3-carbonyl]amino} benzoic acid-formate] | > 16 | – | 6.54
CNc1cccc2cc(C(=O)Nc3ccc(C(=O)NCCC[C@H](N)C(=O)O)cc3)c(=O)[nH]c12 [Example 49, N5-(4-{[8-(methylamino)-2-oxo-1,2-dihydroquinoline-3-carbonyl]amino}benzoyl)-L-ornithine] | > 8 | 7.69 | –
CNc1cc(F)cc2cc(C(=O)Nc3cnc(NCCN4CCN(C)CC4)nc3)c(=O)[nH]c12 [Example 51, 6-fluoro-8-(methylamino)-N-(2-{[2-(4-methylpiperazine-1-yl)ethyl]amino}pyrimidine-5-yl)-2-oxo-1,2-dihydroquinoline-3-carboxamide] | 16 (≈ 35.2 µM) | 8.26 | –
CNc1cc(F)cc2cc(C(=O)Nc3cnc(C(=O)NCCN4CCOCC4)nc3)c(=O)[nH]c12 [Example 53, 6-fluoro-8-(methylamino)-N-(2-{[2-(morpholine-4-yl)ethyl]carbamoyl}pyrimidine-5-yl)-2-oxo-1,2-dihydroquinoline-3-carboxamide] | 0.25 (≈ 0.533 µM) | 8.83 | –
CNc1cc(F)cc2cc(C(=O)Nc3cnc(N4CCNCC4)nc3)c(=O)[nH]c12.Cl [Example 55, 6-Fluoro-8-(methylamino)-2-oxo-N-[2-(piperazin-1-yl)pyrimidin-5-yl]-1,2-dihydroquinoline-3-carboxamide-hydrochloride] | > 16 | – | 7.83
CNc1cc(F)cc2cc(C(=O)Nc3ccc(C(=O)NCC4CCN(CCN)CC4)cc3)c(=O)[nH]c12 [Example 57, N-(4-({[1-(2-aminoethyl)piperidine-4-yl]methyl}carbamoyl)phenyl]-6-fluoro-8-(methylamino)-2-oxo-1,2-dihydroquinoline-3-carboxamide-dihydrochloride] | > 16 | 8.44 | –
CNc1cc(F)cc2cc(C(=O)Nc3cnc(NCCN)nc3)c(=O)[nH]c12.O=CO [Example 59, N-{2-[(2-aminoethyl)amino]pyrimidine-5-yl}-6-fluoro-8-(methylamino)-2-oxo-1,2-dihydroquinoline-3-carboxamide-formate] | > 2 | – | 7.83
CNc1cc(F)cc2cc(C(=O)Nc3cnc(N4CC(N)C4)nc3)c(=O)[nH]c12.O=CO [Example 60, N-[2-(3-aminoazetidine-1-yl)pyrimidine-5-yl]-6-fluoro-8-(methylamino)-2-oxo-1,2-dihydroquinoline-3-carboxamide-formate] | > 32 | – | 7.93
CNc1cc(F)cc2cc(C(=O)Nc3cnc(C(=O)OC)nc3)c(=O)[nH]c12 [Example 63, methyl 5-{[6-fluoro-8-(methylamino)-2-oxo-1,2-dihydroquinoline-3-carbonyl]amino}pyrimidine-2-carboxylate] | > 16 | – | 8.84
CNc1cc(F)cc2cc(C(=O)NCCc3cccnc3)c(=O)[nH]c12 [Example 64, 6-fluoro-8-(methylamino)-2-oxo-N-[2-(pyridine-3-yl)ethyl]-1,2-dihydroquinoline-3-carboxamide] | > 8 | 7.35 | –
CNc1cc(F)cc2cc(C(=O)Nc3ccc(C(=O)N(C)CCN4CCOCC4)cc3)c(=O)[nH]c12 [Example 67, 6-fluoro-8-(methylamino)-N-(4-{methyl[2-(morpholine-4-yl)ethyl]carbamoyl}phenyl)-2-oxo-1,2-dihydroquinoline-3-carboxamide] | > 16 | 8.20 | –
CNc1cc(F)cc2cc(C(=O)Nc3ccc(C(=O)NCCN)cc3)c(=O)[nH]c12.Cl [Example 68, N-(4-[(2-aminoethyl)carbamoyl]phenyl}-6-fluoro-8-(methylamino)-2-oxo-1,2-dihydroquinoline-3-carboxamide-hydrochloride] | > 8 | – | 8.03
CNc1cc(F)cc2cc(C(=O)Nc3cnc(NCCN4CCOCC4)nc3)c(=O)[nH]c12 [Example 69, 6-fluoro-8-(methylamino)-N-(2-{[2-(morpholine-4-yl)ethyl]amino}pyrimidine-5-yl)-2-oxo-1,2-dihydroquinoline-3-carboxamide] | 8 (≈ 18.1 µM) | 8.15 | –
